Laboratory results published in patent publication US20230172930A1, “USE OF COMPLEMENT FACTOR D INHIBITORS ALONE OR IN COMBINATION WITH ANTI-C5 ANTIBODIES FOR TREATMENT OF PAROXYSMAL NOCTURNAL HEMOGLOBINURIA” (Alexion Pharmaceuticals, Inc., priority 2020, published 2023).

Key:
[1] = tested on: PNH patients with an inadequate response to eculizumab; experiment: Phase 2 study: FACIT-Fatigue Scale V4 (score range 0-52, higher = improvement); type: in vivo, human; settings: for FACIT-Fatigue, mean: N=11
Source text: This study utilized the validated quality of life instrument FACIT-Fatigue Scale (Version 4). This self-reporting instrument measures the severity of fatigue being experienced on a scale of 0 to 52 where a score of less than 30 represents severe fatigue and higher scores indicate improvement in fatigue. A 3-point change is clinically meaningful on this scale. A 10-point or greater change is highly significant on this scale. […] This constitutes an upper limit of the disclosure.

[2] = tested on: PNH patients with an inadequate response to eculizumab; experiment: Phase 2 study: RBC transfusion needs (events, units, annualized rates); type: in vivo, human
Description: Transfusion frequency and amount were evaluated via annualized rates and units, respectively. The average intensive rate of transfusion frequency before treatment was calculated by summing the number of transfusion events in the 52 weeks prior to Screening plus days from Screening to Day 1 of dosing from 10 patients and dividing this sum by the patients' total exposure times. The average intensive rate in the 24 weeks post-treatment was calculated with the same method. The ratio of these two intensive rates (post vs. pre) was used to quantify the treatment effect. Standard statistical analysis for comparing the two intensity rates (post- vs pre-treatment) was conducted.

[3] = pre-danicopan: 52-week history plus screening to Day 1, ten patients on eculizumab

## CC(=O)c1nn(CC(=O)N2C[C@H](F)C[C@H]2C(=O)Nc2cccc(Br)n2)c2ccc(-c3cnc(C)nc3)cc12 [Danicopan, danicopan]
[1]; Baseline, before danicopan, on eculizumab
  FACIT-Fatigue, mean: 34
[1]; Week 24, danicopan 100-200 mg TID + eculizumab
  FACIT-Fatigue, mean: 45
[1]; Patient A, Baseline, before danicopan, on eculizumab 900 mg q14d
  FACIT-Fatigue: 33
[1]; Patient A, Week 12, danicopan 150 mg TID + eculizumab 900 mg q14d
  FACIT-Fatigue: 48
[1]; Patient A, Week 24, danicopan 150 mg TID + eculizumab 900 mg q14d
  FACIT-Fatigue: 52
[1]; Patient B, Baseline, before danicopan, on eculizumab 1200 mg q14d
  FACIT-Fatigue: 45
[1]; Patient B, Week 12, danicopan 100 mg TID + eculizumab 900 mg q14d
  FACIT-Fatigue: 49
[1]; Patient B, Week 24, danicopan 100 mg TID + eculizumab 900 mg q14d
  FACIT-Fatigue: 48
[1]; Patient C, Baseline, before danicopan, on eculizumab 900 mg q14d
  FACIT-Fatigue: 17
[1]; Patient C, Week 12, danicopan 150 mg TID + eculizumab 900 mg q14d
  FACIT-Fatigue: 36
[1]; Patient C, Week 24, danicopan 150 mg TID + eculizumab 900 mg q14d
  FACIT-Fatigue: 26
[1]; Patient D, Baseline, before danicopan, on eculizumab 900 mg q14d
  FACIT-Fatigue: 18
[1]; Patient D, Week 12, danicopan 150 mg TID + eculizumab 900 mg q14d
  FACIT-Fatigue: 41
[1]; Patient D, Week 24, danicopan 150 mg TID + eculizumab 900 mg q14d
  FACIT-Fatigue: 41
[1]; Patient E, Baseline, before danicopan, on eculizumab 1200 mg q14d
  FACIT-Fatigue: 42
[1]; Patient E, Week 12, danicopan 150 mg TID + eculizumab 1200 mg q14d
  FACIT-Fatigue: 25
[1]; Patient E, Week 24, danicopan 150 mg TID + eculizumab 1200 mg q14d
  FACIT-Fatigue: 38
[1]; Patient F, Baseline
  FACIT-Fatigue score: 9 points
[1]; Patient F, Baseline to Week 24
  FACIT-Fatigue improvement: 43 point
[1]; Patient F, Baseline, before danicopan, on eculizumab 900 mg q14d
  FACIT-Fatigue: 9
[1]; Patient F, Week 12, danicopan 150 mg TID + eculizumab 900 mg q14d
  FACIT-Fatigue: 48
[1]; Patient F, Week 24
  FACIT-Fatigue score: 52 points
[1]; Patient F, Week 24, danicopan 150 mg TID + eculizumab 900 mg q14d
  FACIT-Fatigue: 52
[1]; Patient G, Baseline, before danicopan, on eculizumab 1500 mg q14d
  FACIT-Fatigue: 28
[1]; Patient G, Week 12, danicopan 100 mg TID + eculizumab 1500 mg q14d
  FACIT-Fatigue: 44
[1]; Patient G, Week 24, danicopan 100 mg TID + eculizumab 1500 mg q14d
  FACIT-Fatigue: 38
[1]; Patient H, Baseline, before danicopan, on eculizumab 900 mg q14d
  FACIT-Fatigue: 47
[1]; Patient H, Week 12, danicopan 200 mg TID + eculizumab 900 mg q14d
  FACIT-Fatigue: 49
[1]; Patient H, Week 24, danicopan 200 mg TID + eculizumab 900 mg q14d
  FACIT-Fatigue: 49
[1]; Patient I, Baseline, before danicopan, on eculizumab 900 mg q14d
  FACIT-Fatigue: 48
[1]; Patient I, Week 12, danicopan 100 mg TID + eculizumab 900 mg q14d
  FACIT-Fatigue: 50
[1]; Patient I, Week 24, danicopan 200 mg TID + eculizumab 900 mg q14d
  FACIT-Fatigue: 49
[1]; Patient J, Baseline, before danicopan, on eculizumab 1200 mg q14d
  FACIT-Fatigue: 49
[1]; Patient J, Week 12, danicopan 100 mg TID + eculizumab 1200 mg q14d
  FACIT-Fatigue: 51
[1]; Patient J, Week 24, danicopan 200 mg TID + eculizumab 1200 mg q14d
  FACIT-Fatigue: 51
[1]; Patient K, Baseline, before danicopan, on eculizumab 900 mg q14d
  FACIT-Fatigue: 33
[1]; Patient K, Week 12, danicopan 100 mg TID + eculizumab 900 mg q14d
  FACIT-Fatigue: 46
[1]; Patient K, Week 24, danicopan 150 mg TID + eculizumab 900 mg q14d
  FACIT-Fatigue: 50
[1]; at 24 Weeks relative to Baseline on eculizumab
  mean increase in FACIT-Fatigue score: 11 points
[2]; post- vs. pre-danicopan
  reduction in transfusion frequency: 95.8%
[2]; post-danicopan (24 weeks)
  average annualized rate of transfusion events: 0.217
  average annualized transfusion units: 0.43
[2]; pre-danicopan
  average annualized rate of transfusion events: 5.234
  average annualized transfusion units: 9.27
[2]; [3]
  transfusions administered: 57
  units of packed red blood cells (PRBC): 101 units
[2]; since commencing danicopan through week 24, ten patients
  units transfused: 2 units
